Source: patent US8063072B2 (Roche Palo Alto LLC, priority 2009, dated 2011)

Key:
in vitro = settings: human
[1] = tested on: genotype 1b replicon in HCV replicon cells (2209-23); test: HCV replicon assay (Renilla luciferase reporter); assay type: cell-based, HCV genotype 1b; settings: Hepatitis C virus, 72 h; cell line 2209-23, three days incubation, luciferase readout
[2] = target: T1, HCV polymerase (NS5B570n-Con1) (Hepatitis C virus genotype 1b, UniProt Q9WMX2); test: HCV NS5B RNA polymerase activity; assay type: biochemical, HCV Con1 strain
T1 construct: contains a 21 amino acid deletion at the C-terminus relative to the full-length HCV polymerase; 6-histidine (His6) (N); made in house; host or cells: E. coli BL21(DE) pLysS, plasmid pET17b
Protocol: The enzymatic activity of HCV polymerase (NS5B570n-Con1) was measured as the incorporation of radiolabeled nucleotide monophosphates into acid insoluble RNA products. Unincorporated radiolabeled substrate was removed by filtration and scintillant was added to the washed and dried filter plate containing radiolabeled RNA product. The amount of RNA product generated by NS5B570-Con1 at the end of the reaction was directly proportional to the amount of light emitted by the scintillant.
The N-terminal 6-histidine tagged HCV polymerase, derived from HCV Con1 strain, genotype 1b (NS5B570n-Con1) contains a 21 amino acid deletion at the C-terminus relative to the full-length HCV polymerase and was purified from E. coli strain BL21(DE) pLysS. The construct, containing the coding sequence of HCV NS5B Con1 (GenBank accession number AJ242654) was inserted into the plasmid construct pET17b, downstream of a T7 promoter expression cassette and transformed into E. coli. A single colony was grown overnight as a starter culture and later used inoculate 10 L of LB media supplemented with 100 μg/mL ampicillin at 37° C. Protein expression was induced by the addition of 0.25 mM isopropyl-β-D-thiogalactopyranoside (IPTG) when optical density at […] of the culture was between 0.6 and 0.8 and cells were harvested after 16 to 18 h at 30° C. NS5B570n-Con1 was purified to homogeneity using a three-step protocol including subsequent column chromatography on Ni-NTA, SP-Sepharose HP and Superdex 75 resins.
Each 50 μL enzymatic reaction contained 20 nM RNA template derived from the complementary sequence of the Internal Ribosome Entry Site (cIRES), 20 nM NS5B570n-Con1 enzyme, 0.5 μCi of tritiated UTP (Perkin Elmer catalog no. TRK-412; specific activity: 30 to 60 Ci/mmol; stock solution concentration from 7.5×10^-5 M to 20.6×10^-6 M), 1 μM each ATP, CTP, and GTP, 40 mM Tris-HCl pH 8.0, 40 mM NaCl, 4 mM DTT (dithiothreitol), 4 mM MgCl2, and 5 μl of compound serial diluted in DMSO. Reaction mixtures were assembled in 96-well filter plates (cat #MADVNOB, Millipore Co.) and incubated for 2 h at 30° C. Reactions were stopped by addition of 10% final (v/v) trichloroacetic acid and incubated for 40 min at 4° C. Reactions were filtered, washed with 8 reaction volumes of 10% (v/v) trichloroacetic acetic acid, 4 reaction volumes of 70% (v/v) ethanol, air dried, and 25 μl of scintillant (Microscint 20, Perkin-Elmer) was added to each reaction well.
The amount of light emitted from the scintillant was converted to counts per minute (CPM) on a Topcount® plate reader (Perkin-Elmer, Energy Range: Low, Efficiency Mode: Normal, Count Time: 1 min, Background Subtract: none, Cross talk reduction: Off).
Data was analyzed in Excel® (Microsoft) and ActivityBase® (Idbs®). The reaction in the absence of enzyme was used to determine the background signal, which was subtracted from the enzymatic reactions. Positive control reactions were performed in the absence of compound, from which the background corrected activity was set as 100% polymerase activity. All data was expressed as a percentage of the positive control. The compound concentration at which the enzyme-catalyzed rate of RNA synthesis was reduced by 50% (IC50) was calculated by fitting equation (i) to the data where“Y”
[formula] corresponds to the relative enzyme activity (in %), “% Min” is the residual relative activity at saturating compound concentration, “% Max” is the relative maximum enzymatic activity, “X” corresponds to the compound concentration, and “S” is the Hill coefficient (or slope).

HCV = settings: cited from earlier work

SMILES | melting point [°C] | CC50 (in vitro) [nM] | IC50 [1] [nM] | IC50 [2] [nM] | effect on serum levels of HCV-RNA (HCV; monotherapy / sole treatment) | patients with serum amino transferase levels reduced to normal (HCV; monotherapy) [%]
CC(C)(C)c1cc(/C=C/c2ccc(NS(C)(=O)=O)cc2)cc(-c2ccc[nH]c2=O)n1 [Compound I-1] | 258 to 260 | 15100 | 108 | 4 |  | 
CC(C)(C)c1cc(/C=C/c2ccc(NS(C)(=O)=O)cc2)c(O)c(-c2ccc[nH]c2=O)n1 [Compound I-2, N-{4-[(E)-2-(6-tert-Butyl-3-hydroxy-2′-oxo-1′,2′-dihydro-[2,3′]bipyridinyl-4-yl)-vinyl]-phenyl}-methanesulfonamide] | 178 to 180 |  |  | 177 |  | 
CC(C)(C)c1cc(CCc2ccc(NS(C)(=O)=O)cc2)c(O)c(-c2ccc[nH]c2=O)n1 [Compound I-3, N-{4-[2-(6-tert-Butyl-3-hydroxy-2′-oxo-1′,2′-dihydro-[2,3′]bipyridinyl-4-yl)-ethyl]-phenyl}-methanesulfonamide] | 123 to 125 |  | 566 | 27 |  | 
COC(=O)c1cc(C(C)(C)C)nc(-c2ccc[nH]c2=O)c1C#N [Compound I-4, 6-tert-Butyl-3-cyano-2′-oxo-1′,2′-dihydro-[2,3′]bipyridinyl-4-carboxylic acid methyl ester] | 228 to 230 |  |  | 5640 |  | 
CC(C)(C)c1cc(C(=O)N[C@H]2CC[C@H](NS(C)(=O)=O)CC2)c(C#N)c(-c2ccc[nH]c2=O)n1 [Compound I-5, 6-tert-Butyl-3-cyano-2′-oxo-1′,2′-dihydro-[2,3′]bipyridinyl-4-carboxylic acid (4-methanesulfonylamino-cyclohexyl)-amide] | 208 to 210 |  |  | 42 |  | 
CC(C)(C)c1cc(CCc2ccc(NS(C)(=O)=O)cc2)c(C#N)c(-c2ccc[nH]c2=O)n1 [Compound I-6, N-{4-[2-(6-tert-Butyl-3-cyano-2′-oxo-1′,2′-dihydro-[2,3′]bipyridinyl-4-yl)-ethyl]-phenyl}-methanesulfonamide] |  |  |  | 4 |  | 
CC(C)(C)c1nc(/C=C/c2ccc(NS(C)(=O)=O)cc2)cc(-c2ccc[nH]c2=O)n1 [Compound I-7, N-(4-{(E)-2-[2-tert-Butyl-6-(2-oxo-1,2-dihydro-pyridin-3-yl)-pyrimidin-4-yl]-vinyl}-phenyl)-methanesulfonamide] | 271 to 273 |  |  | 10 |  | 
NC(=O)c1ncn([C@@H]2O[C@H](CO)[C@@H](O)[C@H]2O)n1 [ribavirin, 1-((2R,3R,4S,5R)-3,4-Dihydroxy-5-hydroxymethyl-tetrahydro-furan-2-yl)-1H-[1,2,4]triazole-3-carboxylic acid amide] |  |  |  |  | does not lower serum levels of HCV-RNA | 40
